Entries after “also recorded” stand apart in the source; their conditions may differ.
Key:
[1] = 90-day pharmacokinetic study after intra-articular injection in Beagles; assay type: in vivo; conditions: Beagle
Experimental: Pharmacokinetic assessment of R805. Pharmacokinetics were conducted in a canine model for over 90 days. Purpose-bred beagles with intact stifles were injected intra-articularly with 500 μL of physiological saline containing 0.25% carboxymethyl cellulose (CMC) and either 1 μg or 100 ng of […] (n=4 each). Synovial fluid and plasma were collected at d0, d3, d7, d14, d21, d31, d60 and d90 and analyzed by LC-MS/MS. Doses of 10 μg, 1 μg and 0.1 μg of R805 were utilized for the main experiment.

[2] = biological target: T1, heterodimerization of gp130 with IL-6 family of cytokines' alpha receptors (Homo sapiens, UniProt P40189); test: Receptor-competition assay (co-IP of gp130 FLAG with alpha receptors); assay type: cell-based; conditions: articular chondrocytes transfected with gp130 FLAG, different doses, 4 and 24 hours
T1 construct: A plasmid encoding full-length gp130 (WTgp130; InVivoGen) was used to create the 5 mutants; expressed in transfected cells
Experimental: IP Western, SDS-PAGE and Western blot analysis. For transfections of gp130 wild type (WT) (InVivoGen) and gp130 mutant plasmids (Thermo Scientific), cells were plated 24 h prior to transfection to produce monolayers that were 60% confluent and these were transfected by using Turbo DNAfectin 3000 (cat #G3000, Lambda Biotech) according to the manufacturer's protocol. 72h after transfection, cells were maintained in DMEM (10% FBS, 1% PSA) and were either left untreated or were stimulated with IL-6 (10 ng/mL) and/or OSM (10 ng/mL) for 24 h before cell harvest and protein extraction. For immunoprecipitation assays, cell lysates were incubated with Protein G Agarose (cat #20398, Pierce) and anti-Flag antibody (cat #2368, Cell Signaling) at 4° C. overnight. The immune complexes were sedimented, washed and separated by SDS-PAGE (see below) and further analyzed by Western blot using p-SRC (pY416-SRC) (cat #1246F, Novus Biologicals) or NEMO (cat #18474-1-AP, Proteintech) antibodies and normalized to gp130 (cat #bs-1459R, Bioss) or total SRC (cat #2123, Cell Signaling). For R805 treatment, the immune complexes were sedimented, washed and separated by SDS-PAGE and further analyzed by Western blot using OSMR (cat #ab85575, Abcam), LIFR (Santa cat #515337, Cruz Biotechnology) or p-SRC (pY416-SRC) (Novus Biologicals, cat #1246F). […]

gp130 and pSRC = test: Co-immunoprecipitation of complex formation between gp130 and pSRC in pig articular chondrocytes; assay type: cell-based; conditions: pig articular chondrocytes with or without OSM, 4 and 24 hours
Experimental: IP Western, SDS-PAGE and Western blot analysis. For transfections of gp130 wild type (WT) (InVivoGen) and gp130 mutant plasmids (Thermo Scientific), cells were plated 24 h prior to transfection to produce monolayers that were 60% confluent and these were transfected by using Turbo DNAfectin 3000 (cat #G3000, Lambda Biotech) according to the manufacturer's protocol. 72h after transfection, cells were maintained in DMEM (10% FBS, 1% PSA) and were either left untreated or were stimulated with IL-6 (10 ng/mL) and/or OSM (10 ng/mL) for 24 h before cell harvest and protein extraction. For immunoprecipitation assays, cell lysates were incubated with Protein G Agarose (cat #20398, Pierce) and anti-Flag antibody (cat #2368, Cell Signaling) at 4° C. overnight. The immune complexes were sedimented, washed and separated by SDS-PAGE (see below) and further analyzed by Western blot using p-SRC (pY416-SRC) (cat #1246F, Novus Biologicals) or NEMO (cat #18474-1-AP, Proteintech) antibodies and normalized to gp130 (cat #bs-1459R, Bioss) or total SRC (cat #2123, Cell Signaling). For R805 treatment, the immune complexes were sedimented, washed and separated by SDS-PAGE and further analyzed by Western blot using OSMR (cat #ab85575, Abcam), LIFR (Santa cat #515337, Cruz Biotechnology) or p-SRC (pY416-SRC) (Novus Biologicals, cat #1246F). Histone H3 (cat #9715, Cell Signaling), gp130 (cat #bs-1459R, Bioss), total SRC (cat #2123, Cell Signaling) or Flag antibody (cat #14739, Cell Signaling) were used as loading controls.
The studies delineate that gp130 Y814 regulates SRC downstream signaling; since SRC is known to associate with gp130, it was hypothesized that gp130 and SRC are capable of physically interacting on Y814 and hindering this interaction will prevent SRC from signaling. In order to impede this interaction, experiments were performed using an innovative peptide library screen with short and overlapping peptides mimicking the motif of gp130 around Y814 that were individually tested for pSRC downregulation; these peptides ranged from 4-15 amino acids. The peptides contained a protein sequence stretch of consecutive amino acids surrounding gp130 Y814 residue. To test their efficacy, pig articular chondrocytes were stimulated with or without OSM in presence or absence of the peptides followed by co-immunoprecipitation to determine interaction and western blot detecting pSRC activity. […] Due to sequence specificity, the peptide is capable of discriminating among other gp130 regions serving as a competitive inhibitor.

[3] = system: bearded dragon (Pogona vitticeps) amputated tail; test: Lizard tail healing model; assay type: in vivo; conditions: 14 days post-amputation
Experimental: Lizard Tail Healing Model. Captive bred and raised bearded dragon lizards (Pogona vitticeps) were maintained at 25.5° C. with 65% humidity on a 12 hr light/12 hr dark schedule with UVB lamp (Zoo Med) treatment during daylight hours. Care and experimental use of lizards was conducted in accordance with Institutional Animal Care and Use Committee (IACUC). Lizard tails were amputated halfway along lengths with scalpels To systemically deplete macrophage populations, lizards received intraperitoneal (IP) injections of L-α-phoshatidylcholine/cholesterol liposomes containing clodronate (0.125 mg/g) as previously described (Londono et al. J Immunol Regen Med. 2020). Control animals were treated with liposomes containing PBS instead of clodronate. Lizards were treated with R805 drug via daily direct injection (1 pmol drug) into amputated tail stumps. Lizard tail samples were collected 14 days following original tail amputation. Collected tail samples were photographed using an Olympus SZX16 stereo microscope. Images were uploaded in ImageJ (NIH, Bethesda MD) and quantified using the measure command. For labeling of proliferating cell populations with 5-ethynyl-2′-deoxyuridine (EdU) (ThermoFisher Scientific), animals received IP injections of EdU (50 mg/kg) four hours prior to sample collection. Samples to be analyzed via histology were fixed overnight in 4% paraformaldehyde, decalcified for 3 weeks in 10% EDTA (pH 7.4), equilibrated to 30% sucrose, embedded in optimal cutting temperature compound (OCT, Tissue-Tek), crypsectioned at 16 μm thickness, mounted on glass slides, and stained with 4′,6-diamidino-2-phenylindole (DAPI). Samples were stained with Masson's trichrome (American Mastertech) according to the manufacturer's instructions or immunostained for CTSK (Abcam antibody ab19027, used at 1:1000). Images were captured with an Olympus CKX41 microscope outfitted with a Keyence BZ-X800 microscope, and the areas of EdU signal were quantified with ImageJ. Statistical analysis was performed using Prism 7 with one or two-way ANOVA with pairwise Tukey's multiple comparison test for data with multiple groups. A p-value of <0.05 was deemed to be statistically significant. All values and graphs are shown as mean±SD.

T1 sequence (P40189 23-918, one chain of several): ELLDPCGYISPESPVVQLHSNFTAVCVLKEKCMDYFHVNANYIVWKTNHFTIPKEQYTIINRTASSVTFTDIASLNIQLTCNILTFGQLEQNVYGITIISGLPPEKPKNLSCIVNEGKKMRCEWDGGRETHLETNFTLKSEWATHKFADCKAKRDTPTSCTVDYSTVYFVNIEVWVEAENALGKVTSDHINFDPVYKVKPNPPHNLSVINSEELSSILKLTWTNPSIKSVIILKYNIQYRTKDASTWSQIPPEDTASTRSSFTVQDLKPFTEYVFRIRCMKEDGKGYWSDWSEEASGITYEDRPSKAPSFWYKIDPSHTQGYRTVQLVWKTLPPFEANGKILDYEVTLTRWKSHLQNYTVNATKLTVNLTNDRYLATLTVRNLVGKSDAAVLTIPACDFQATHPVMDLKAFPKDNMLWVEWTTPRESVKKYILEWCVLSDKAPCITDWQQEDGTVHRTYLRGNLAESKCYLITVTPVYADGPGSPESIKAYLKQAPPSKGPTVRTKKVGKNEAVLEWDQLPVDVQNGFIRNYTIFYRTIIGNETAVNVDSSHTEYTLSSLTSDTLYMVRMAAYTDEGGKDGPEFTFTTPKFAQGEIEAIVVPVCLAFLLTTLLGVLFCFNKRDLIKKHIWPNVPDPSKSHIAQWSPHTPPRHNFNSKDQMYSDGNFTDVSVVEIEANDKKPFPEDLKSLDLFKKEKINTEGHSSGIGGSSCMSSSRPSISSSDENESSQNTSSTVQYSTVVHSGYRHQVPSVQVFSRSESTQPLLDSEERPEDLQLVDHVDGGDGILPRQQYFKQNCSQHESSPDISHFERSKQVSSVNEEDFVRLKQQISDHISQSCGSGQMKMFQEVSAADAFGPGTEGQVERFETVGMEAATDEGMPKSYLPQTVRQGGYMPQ

Cc1ccc(-c2csc(NC(=O)c3ccccn3)n2)cc1 [Peptide R805]
time that IC50 concentrations of R805 were maintained in the joint ([1]; 1 μg intra-articular injection): 3 weeks
detection in systemic circulation ([1]; intra-articular injection, 90-day study): never detected in systemic circulation; also recorded: not detected in systemic circulation
IL-6 family-induced heterodimerization of gp130 with α-receptors [2]: markedly suppressed; also recorded: inhibits heterodimerization of gp130 with IL-6 family of cytokines' alpha receptors
complex formation between gp130 and pSRC (gp130-SRC interaction) (gp130 and pSRC): able to prevent endogenous interaction of SRC with gp130; also recorded: prevents SRC binding to gp130
CTSK+ macrophage recruitment to amputation site [3]: exhibited CTSK+ macrophage populations that extended into new tissue areas distal to amputation planes
proliferating EdU+ cells [3]: significantly higher numbers of proliferating EdU+ wound epithelium and periosteal cells
tail tissue regrowth under macrophage depletion ([3]; R805 co-treated with clodronate liposomes): co-treatment with clodronate liposomes inhibited R805-induced tissue regrowth
tail tissue regeneration (gross morphology, Masson's trichrome) ([3]; daily direct injection into amputated tail stump): resulted in tissue regeneration as evidenced by blastema-like structures; also recorded: enhances lizard tail regeneration in a macrophage-dependent manner
